Experimental data as given in patent US20230312587A1, “PTERIDINONE COMPOUNDS AND USES THEREOF” (Vertex Pharmaceutical Incorporated, priority 2018, published 2023).
pIC50: −log10 of the molar value.

tested on: β-catenin-TCF-mediated reporter transcription activity in Colo 205 cells; test: Colo 205 reporter assay (TCF/LEF luciferase); format: cell-based; conditions: Colo 205 TCF/LEF luciferase reporter, five hours after addition of compound; read-out: TCF reporter Colo205 IC50
Summary of the method: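 Luciferase signal from a TCF/LEF-driven reporter, stably integrated in Colo 205 colon cancer cells, was measured 5 h after compound addition.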

| pIC50 | Compound |
| --- | --- |
| > 6.52 | (7S)-7-(2-hydroxyethyl)-4-methyl-2-(((1-((6-(trifluoromethyl)pyridin-3-yl)methyl)-1H-pyrazol-4-yl)methyl)amino)-7,8-dihydropteridin-6(5H)-one [Compound 440] |

same assay, conditions: Homo sapiens, COLO 205, 5 h, Colo 205 TCF/LEF luciferase reporter, five hours after addition of compound; read-out: TCF reporter Colo205 IC50

| Compound | pIC50 |
| --- | --- |
| Cc1nc(NCc2nc(-c3ccccc3)cs2)nc2c1NC(=O)[C@H](C)N2C [Compound 59, (7S)-4,7,8-trimethyl-2-(((4-phenylthiazol-2-yl)methyl)amino)-7,8-dihydropteridin-6(5H)-one] | ≤ 5.30 |
| Cc1ccc(O[C@H]2C[C@H](Nc3nc(C)c4c(n3)N(C)[C@@H](C)C(=O)N4C)C2)cc1 [Compound 338, (7S)-4,5,7,8-tetramethyl-2-((trans-3-(p-tolyloxy)cyclobutyl)amino)-7,8-dihydropteridin-6(5H)-one] | 5.30 to 6.00 |
| Cc1nn(Cc2ccc(F)cc2)cc1CNc1nc(C)c2c(n1)N(C)[C@@H](C)C(=O)N2 [Compound 73, (7S)-2-(((1-(4-fluorobenzyl)-3-methyl-1H-pyrazol-4-yl)methyl)amino)-4,7,8-trimethyl-7,8-dihydropteridin-6(5H)-one] | > 6.52 |
| CCN1C(=O)[C@H](CCO)N(CC)c2nc(NCc3cnn(Cc4cc(F)c(F)c(F)c4)c3)ncc21 [Compound 37, (7S)-5,8-diethyl-7-(2-hydroxyethyl)-2-(((1-(3,4,5-trifluorobenzyl)-1H-pyrazol-4-yl)methyl)amino)-7,8-dihydropteridin-6(5H)-one] | > 6.52 |
| Cc1nc(NCc2cnn(Cc3ccc(C(F)(F)F)nc3)c2)nc2c1NC(=O)[C@H](CCO)N2 [Compound 439, (S)-7-(2-hydroxyethyl)-4-methyl-2-(((1-((6-(trifluoromethyl)pyridin-3-yl)methyl)-1H-pyrazol-4-yl)methyl)amino)-7,8-dihydropteridin-6(5H)-one] | ≤ 5.30 |
| C[C@H]1C(=O)Nc2cnc(NCc3cnn(Cc4ccc(F)c(F)c4)c3)nc2N1C [Compound 141, (7S)-2-(((1-(3,4-difluorobenzyl)-1H-pyrazol-4-yl)methyl)amino)-7,8-dimethyl-7,8-dihydropteridin-6(5H)-one] | > 6.52 |
| Cc1nc(NCc2cnn(Cc3ccc(C(F)(F)F)nc3)c2)nc2c1NC(=O)C(C)(C)N2C [Compound 238, 4,7,7,8-Tetramethyl-2-(((1-((6-(trifluoromethyl)pyridin-3-yl)methyl)-1H-pyrazol-4-yl)methyl)amino)-7,8-dihydropteridin-6(5H)-one] | > 6.52 |
| Cc1nc(NCc2cnn(CC(C)(C)c3ccc(F)cc3)c2)nc2c1NC(=O)[C@H](C)N2C [Compound 92, (7S)-2-(((1-(2-(4-fluorophenyl)-2-methylpropyl)-1H-pyrazol-4-yl)methyl)amino)-4,7,8-trimethyl-7,8-dihydropteridin-6(5H)-one] | > 6.52 |
| Cc1nc(NCc2cnn(Cc3cn(C)nc3C(F)(F)F)c2)nc2c1NC(=O)[C@H](C)N2C [Compound 159, (7S)-4,7,8-trimethyl-2-(((1-((1-methyl-3-(trifluoromethyl)-1H-pyrazol-4-yl)methyl)-1H-pyrazol-4-yl)methyl)amino)-7,8-dihydropteridin-6(5H)-one] | 6.00 to 6.52 |
| C[C@H]1C(=O)Nc2cnc(N[C@H]3C[C@@H](Oc4ccc(F)cc4)C3)nc2N1C [Compound 241, (7S)-2-((cis-3-(4-fluorophenoxy)cyclobutyl)amino)-7,8-dimethyl-7,8-dihydropteridin-6(5H)-one] | ≤ 5.30 |
| Cc1nc(N[C@H]2C[C@@H](COc3ccc(C(F)(F)F)nc3)C2)nc2c1NC(=O)[C@H](C)N2C [Compound 364, (7S)-4,7,8-trimethyl-2-((cis-3-(((6-(trifluoromethyl)pyridin-3-yl)oxy)methyl)cyclobutyl)amino)-7,8-dihydropteridin-6(5H)-one] | > 6.52 |
| Cc1nc(N[C@H]2C[C@H](Oc3ccc(F)c(F)c3)C2)nc2c1NC(=O)[C@H](C)N2C [Compound 248, (7S)-2-((trans 3-(3,4-difluorophenoxy)cyclobutyl)amino)-4,7,8-trimethyl-7,8-dihydropteridin-6(5H)-one] | > 6.52 |
| Cc1nc(N[C@H]2C[C@H](Oc3ccc(C(F)(F)F)cc3)C2)nc2c1N(C)C(=O)[C@H](C)N2C [Compound 341, (7S)-4,5,7,8-tetramethyl-2-((trans-3-(4-(trifluoromethyl)phenoxy)-cyclobutyl)-amino)-7,8-dihydropteridin-6(5H)-one] | > 6.52 |
| COc1cc(F)ccc1Cn1cc(CNc2nc(C)c3c(n2)N(C)[C@@H](C)C(=O)N3C)cn1 [Compound 84, (7S)-2-(((1-(4-fluoro-2-methoxybenzyl)-1H-pyrazol-4-yl)methyl)amino)-4,5,7,8-tetramethyl-7,8-dihydropteridin-6(5H)-one] | > 6.52 |
| Cc1nc(NCc2cnn(CCc3cc(F)cc(F)c3)c2)nc2c1NC(=O)[C@H](C)N2C [Compound 107, (7S)-2-(((1-(3,5-difluorophenethyl)-1H-pyrazol-4-yl)methyl)amino)-4,7,8-trimethyl-7,8-dihydropteridin-6(5H)-one] | > 6.52 |
| Cc1cnc(C(F)(F)F)nc1-n1cc(CNc2nc(C)c3c(n2)N(C)[C@@H](C)C(=O)N3)cn1 [Compound 161, (7S)-4,7,8-trimethyl-2-(((1-(5-methyl-2-(trifluoromethyl)pyrimidin-4-yl)-1H-pyrazol-4-yl)methyl)amino)-7,8-dihydropteridin-6(5H)-one] | 6.00 to 6.52 |
| Cc1nc(NCc2cnn(Cc3ccc(C(F)(F)F)cn3)c2)nc2c1NC(=O)[C@H](C)N2C [Compound 200, (7S)-4,7,8-trimethyl-2-(((1-((5-(trifluoromethyl)pyridin-2-yl)methyl)-1H-pyrazol-4-yl)methyl)amino)-7,8-dihydropteridin-6(5H)-one] | 6.00 to 6.52 |
| Cc1nc(NCc2cnn(Cc3ccc(F)cc3Cl)c2)nc2c1NC(=O)[C@H](C)N2C [Compound 65, (7S)-2-(((1-(2-chloro-4-fluorobenzyl)-1H-pyrazol-4-yl)methyl)amino)-4,7,8-trimethyl-7,8-dihydropteridin-6(5H)-one] | > 6.52 |
| Cc1nc(N[C@H]2C[C@@H](COc3ccc(F)c(F)c3)C2)nc2c1NC(=O)[C@H](C)N2C [Compound 271, (7S)-2-((cis-3-((3,4-difluorophenoxy)methyl)cyclobutyl)amino)-4,7,8-trimethyl-7,8-dihydropteridin-6(5H)-one] | > 6.52 |
| Cc1nc(NCc2cnn(C3CCN(c4cc(F)cc(F)c4)CC3)c2)nc2c1NC(=O)[C@H](C)N2C [Compound 179, (7S)-2-(((1-(1-(3,5-difluorophenyl)piperidin-4-yl)-1H-pyrazol-4-yl)methyl)amino)-4,7,8-trimethyl-7,8-dihydropteridin-6(5H)-one] | > 6.52 |

The next lines start with the values.

| pIC50 | Compound |
| --- | --- |
| 5.30 to 6.00 | Cc1nc(NC2CN(C(=O)C3CC4CCC3C4)C2)nc2c1NC(=O)[C@H](C(C)C)N2C (stereo partly drawn) [Compound 639, (7S)-2-((1-(bicyclo[2.2.1]heptane-2-carbonyl)azetidin-3-yl)amino)-7-isopropyl-4,8-dimethyl-7,8-dihydropteridin-6(5H)-one] |
| > 6.52 | CC[C@H]1C(=O)Nc2c(C)nc(N[C@H]3C[C@H](Oc4cnc(C(F)(F)F)nc4)C3)nc2N1C [Compound 645, (S)-7-ethyl-4,8-dimethyl-2-((trans-3-((2-(trifluoromethyl)pyrimidin-5-yl)oxy)cyclobutyl)amino)-7,8-dihydropteridin-6(5H)-one] |
| 6.00 to 6.52 | CC[C@H]1C(=O)Nc2c(C)nc(NC3CN(C(=O)c4cc(F)c(F)c(F)c4)C3)nc2N1C [Compound 739, (S)-7-ethyl-4,8-dimethyl-2-((1-(3,4,5-trifluorobenzoyl)azetidin-3-yl)amino)-7,8-dihydropteridin-6(5H)-one] |
| 5.30 to 6.00 | Cc1nc(N[C@H]2C[C@@H](Nc3ccc(F)cn3)C2)nc2c1NC(=O)[C@H](C(C)C)N2C [Compound 732, (S)-2-((cis-3-((5-fluoropyridin-2-yl)amino)cyclobutyl)amino)-7-isopropyl-4,8-dimethyl-7,8-dihydropteridin-6(5H)-one] |
| > 6.52 | Cc1nc(NCc2cnn(CC3CC(F)(F)C3)c2)nc2c1NC(=O)[C@H](C(C)C)N2C [Compound 727, (S)-2-(((1-((3,3-difluorocyclobutyl)methyl)-1H-pyrazol-4-yl)methyl)amino)-7-isopropyl-4,8-dimethyl-7,8-dihydropteridin-6(5H)-one] |
| 6.00 to 6.52 | CC[C@H]1C(=O)Nc2c(C)nc(N[C@H]3C[C@@H](Cn4ccc(C(F)(F)F)n4)C3)nc2N1C [Compound 692, (S)-7-ethyl-4,8-dimethyl-2-((cis-3-((3-(trifluoromethyl)-1H-pyrazol-1-yl)methyl)cyclobutyl)amino)-7,8-dihydropteridin-6(5H)-one] |
| 5.30 to 6.00 | Cc1nc(NC2CN(C(=O)c3csc(Cl)n3)C2)nc2c1NC(=O)[C@H](C(C)C)N2C [Compound 630, (S)-2-((1-(2-chlorothiazole-4-carbonyl)azetidin-3-yl)amino)-7-isopropyl-4,8-dimethyl-7,8-dihydropteridin-6(5H)-one] |
| 6.00 to 6.52 | Cc1nc(NC2CN(C(=O)Cc3ccc(F)cc3F)C2)nc2c1NC(=O)[C@H](C(C)C)N2C [Compound 616, (S)-2-((1-(2-(2,4-difluorophenyl)acetyl)azetidin-3-yl)amino)-7-isopropyl-4,8-dimethyl-7,8-dihydropteridin-6(5H)-one] |
| 5.30 to 6.00 | Cc1nc(N[C@H]2C[C@H](Nc3cnc(C(F)(F)F)cn3)C2)nc2c1NC(=O)[C@H](C)N2C [Compound 579, (S)-4,7,8-trimethyl-2-((trans-3-((5-(trifluoromethyl)pyrazin-2-yl)amino)cyclobutyl)amino)-7,8-dihydropteridin-6(5H)-one] |
| > 6.52 | C=C(C)c1ccc(Cn2cc(CNc3nc(C)c4c(n3)N(C)[C@@H](C(C)C)C(=O)N4)cn2)cn1 [Compound 480, (S)-7-isopropyl-4,8-dimethyl-2-(((1-((6-(prop-1-en-2-yl)pyridin-3-yl)methyl)-1H-pyrazol-4-yl)methyl)amino)-7,8-dihydropteridin-6(5H)-one] |
